Laboratory results reported in patent US20170252367A1, “PHARMACEUTICAL COMPOSITIONS AND METHODS RELATING TO INHIBITING FIBROUS ADHESIONS OR INFLAMMATORY DISEASE USING LOW SULPHATE FUCANS” (ARC Medical Devices, Inc., priority 2004, published 2017).
Where a name gives a salt, the structure may show the parent alone.

Tested on: fibrous adhesions between the caecum and the sidewall
Test: Rat caecal-sidewall surgical adhesion model, drug loaded hyaluronic acid film (Example 1)
Type: in vivo
Conditions: for inhibition of all adhesions (zero on the Total Adhesion Value scale) in at least one test animal: agent administered to the cecal-sidewall site
Excerpt: In one embodiment, the efficacy of the given drug or drug combination can be assessed as a reduction of the average Total Adhesion Value (strength×area; “TAV”) of the drug or combination versus a given standard, for example a drug-loaded sodium hyaluronate film versus a sham or a sodium hyaluronate film alone in the rat cecal-sidewall model for surgical fibrous adhesions.
The rat caecal sidewall model of surgical adhesions was used to investigate the effect of administration of each agent discussed herein (hereafter referred to as the drug) for the prevention of post-surgical type of fibrous adhesions. In this model, rats were divided into groups of 4. After surgical trauma, the rats were either untreated, treated with crosslinked hyaluronic acid (HA) film, or crosslinked HA film containing drug at the following concentrations in the film (% w/w):
Animal Studies. […] Only animals that appeared grossly normal (i.e., showing a clean unruffled coat, bright clear eyes and an active posture) were used in the study. Animals were randomly assigned to treatment groups, weighed and anesthetized with isoflurane gas. The abdomen was shaved and cleaned with a skin-antibacterial cleanser (Steri-Stat 2%) and wiped with a chlorohexane soaked gauze. A nick was made in one of the tail veins to elicit a small amount of blood (<100 mL). A white blood cell count was performed on this blood sample. An antibiotic (40,000 IU/kg of depopenicillin) was injected into the right thigh and an analgesic (0.01 mg/kg of buprenorphine) was injected into the left thigh of each rat. A 4 cm incision was made in the skin beginning approximately 2 cm caudal to the linea alba while the muscle was tended with forceps. […] Scraping was in the opposite direction to which the blade was pointing. The scraped caecum was wrapped in saline-soaked gauze. Doynes were used to separate the peritoneal wall from the skin, and the peritoneal wall was inverted using the doynes to expose the inside of the wall. A rectangular injury roughly 1.2 cm by 1.8 cm was made by shallow incisions to the peritoneal wall. The top membrane and a layer of muscle tissue was removed using forceps. The caecum was stitched to the four corners of the rectangle using a 5-0 suture, and without tying off the top two stitches. A piece of film was placed onto the abraded rectangle and then the top two stitches were tied firmly. In the case of the untreated control group, no film was placed over the abraded site. The exposed organs were replaced in the abdomen in such a way as to prevent torsional stress on the intestines. […] A collar was placed around the neck of the animal to prevent it from interfering with the stitches. The rat was placed in a clean cage and warmed with a heating lamp until consciousness was regained.

Structure (SMILES) | reduction in adhesion score versus control, one-tailed Student's t-test (p<0.05) (2% w/w in HA film) | inhibition of all adhesions (zero on the Total Adhesion Value scale) in at least one test animal | reduction in adhesion score versus control, one-tailed Student's t-test (p<0.05) (5% w/w in HA film)
N.N.[Cl][Pt][Cl] [cisplatin, Cisplatin] | statistically significant | completely inhibited fibrous adhesions | –
CC(=O)O[C@@]12CO[C@@H]1C[C@H](O)[C@@]1(C)C(=O)[C@H](O)C3=C(C)[C@@H](OC(=O)[C@H](O)[C@@H](NC(=O)OC(C)(C)C)c4ccccc4)C[C@@](O)([C@@H](OC(=O)c4ccccc4)[C@H]21)C3(C)C [docetaxel, Docetaxel] | – | completely inhibited fibrous adhesions | –
CCOC(=O)[C@H](CCc1ccccc1)N[C@@H](C)C(=O)N1CCC[C@H]1C(=O)O [enalapril maleate, Enalapril Maleate] | – | – | statistically significant
CN(Cc1cnc2nc(N)nc(N)c2n1)c1ccc(C(=O)N[C@@H](CCC(=O)O)C(=O)O)cc1 [methotrexate, Methotrexate] | – | completely inhibited fibrous adhesions | –
CC[C@H]1OC(=O)[C@H](C)[C@@H](O[C@H]2C[C@@](C)(OC)[C@@H](O)[C@H](C)O2)[C@H](C)[C@@H](O[C@@H]2O[C@H](C)C[C@H](N(C)C)[C@H]2O)[C@](C)(O)C[C@@H](C)C(=O)[C@H](C)[C@@H](O)[C@]1(C)O [erythromycin, Erythromycin] | – | – | statistically significant
